These results are taken from patent US20180064821A1, “SITE SPECIFIC CURCUMIN-POLYMER MOLECULAR COMPLEXES AND METHODS OF TREATING COLON DISEASES AND INFLAMMATION” (priority 2016, published 2018).

Like-named read-outs stand apart in the source and are kept apart here.

The test system of data set [1] is HCT116 human colo-rectal cancer cells. Kind of data set: MTT cell viability assay, HCT116. Particulars: 48 h incubation. It is filed as cell-based. How it is done: (§1) Following 48 h of incubation, 0.5 mg/ml MTT solution was added to each well, and the cells were incubated for further 4 h at 37° C. After 4 h, 150 μl of DMSO was added to each well and incubated for 1 h at 37° C. to dissolve the formazan crystals. The absorbance was then measured at 570 nm with a reference wavelength of 650 nm using UV-visible spectrophotometer. The results are represented in terms of percentage inhibition of cell proliferation compared to that of vehicle control. The cellular viability was assessed as a percentage of the control by using the following equation.
A general note: Tetrazolium dyes change colour on reduction, which living cells bring about.

For data set [2], the system named is HT29 human colo-rectal cancer cells. The experiment in a line: MTT cell viability assay, HT29. The class given is cell-based. Particulars: 48 h incubation. How it is done:
as §1

Data set [3] in a line: Aqueous stability of curcumin complexes. The class given is physicochemical. The settings on record: 37° C. Here is the method: At different time intervals (0, 1, 2, 4, 6, 8, 12, 16, 20, 24 h), the samples were collected, centrifuged (20,000 g) and the supernatant was passed through […] filter.
The test system of data set [4] is HT29 colo-rectal cancer cells. Kind of data set: pH dependent cellular uptake by flow cytometry, HT29. The class given is cell-based, human. Here is the method: (§2) Briefly, 2×10^5 cells were seeded in 24 well-plates and allowed to adhere for 24 h. […] After 4 h, the cells were washed with PBS, trypsinized, fixed using 4% paraformaldehyde (PFA) and stored at 4° C. until further analysis using flow cytometer. […] Sample acquisition was performed using BD Biosciences FACS LSR Fortessa and data analyzed using FlowJo software (FlowJo LLC).
On the technique in general: Flow cytometry measures light scatter and fluorescence of single cells or particles in a stream.

Data set [5] concerns HCT116 colo-rectal cancer cells. The experiment in a line: pH dependent cellular uptake by flow cytometry, HCT116. It is filed as cell-based, human. How it is done: as §2

`COc1cc(/C=C/C(=O)CC(=O)/C=C/c2ccc(O)c(OC)c2)ccc1O` [Curcumin, (1E,6E)-1,7-bis(4-hydroxy-3-methoxyphenyl)-1,6-heptadiene-3,5-dione]: the IC50 (as a rule, the concentration that inhibits the measured activity by half) is over 80 µM in data set [1] (listed as Unformulated curcumin at pH 7.0, read-out: IC50 (mean ± SD) In HCT116 Cells); 18.4 ± 1.94 µM in data set [1] (listed as curcumin in DMSO, read-out: IC50 (mean ± SD) In HCT116 Cells); over 80 µM in data set [2] (listed as Unformulated curcumin at pH 7.0, read-out: IC50 (mean ± SD) In HT29 Cells); 41.8 ± 1.86 µM in data set [2] (Homo sapiens, HT-29, 48 h, read-out: IC50 (mean ± SD) In HT29 Cells). Moreover, the initial curcumin present was about 10% in data set [3] (SIF (pH 6.7-6.9) and pH 7.0 buffer with 10% methanol, 24 h); about 30% in data set [3] (aqueous buffers with 10% methanol, within 2 h). Besides, the “Cellular uptake of curcumin, Mean fluorescence intensity” value is on record as 2704 ± 221 in data set [4] (pH 5.5, 4 h); 2429 ± 247 in data set [4] (pH 7.0, 4 h); 2543 ± 72 in data set [5] (pH 5.5, 4 h); 3514 ± 975 in data set [5] (pH 7.0, 4 h).
